In PMC11023938 (Nature, 2024):

Tests used:
[1] = test system: Nav1.8^cre/Rosa26^DTA mice; assay: Flow cytometry of injured skin and muscle, nociceptor-ablated mice; assay type: in vivo, mouse; conditions: TSP-1 total 10 μg
Method: Skin wounds were collected using an 8-mm biopsy punch, and muscle defects were dissected to isolate the quadriceps. Samples were minced with scissors and subjected to two serial digestions with collagenase XI (1 mg ml^−1) at 37 °C (two times 20 min for skin, two times 15 min for muscle). After the first digestion, the supernatant was collected and mixed with neutralization buffer (DMEM/F12 with 10% FBS and 5 mM EDTA). The first collection was kept on ice and fresh collagenase XI was added to the undigested tissue for the second digestion. Digestion mixtures were passed through a 70-μm cell strainer and stained with LIVE/DEAD Fixable Aqua dye (Thermo Fisher Scientific, 1:400 dilution in PBS) for 20 min on ice. Cells were incubated with TruStain FcX anti-CD16/32 (10 μg ml^−1; clone 93, BioLegend) diluted in staining buffer (5% FBS and 2 mM EDTA in PBS) for 20 min and subsequently incubated with primary antibodies in staining buffer for a further 30 min on ice. The following anti-mouse antibodies from BioLegend were used: FITC anti-CD11b (clone M1/70, 6.6 μg ml^−1) or BV711 anti-CD11b (clone M1/70, 2 μg ml^−1); PE anti-F4/80 (clone BM8, 4 μg ml^−1); BV421 anti-Ly6G (clone 1A8, 2 μg ml^−1); BV711 anti-Ly6C (clone HK1.4, 1 μg ml^−1) or FITC anti-Ly6C (clone HK1.4, 5 μg ml^−1); PE-Cyanine7 anti-CD206 (clone C068C2, 2.6 μg ml^−1); APC anti-CD206 (clone C068C2, 2 μg ml^−^1); PE-Cyanine7 anti-CD3 (clone 17A2, 4 μg ml^−1); BV711 anti-CD3 (clone 17A2, 4 μg ml^−1);APC anti-CD4 (clone GK1.5, 2 μg ml^−1); BV421 anti-CD8 (clone 53-6.7, 2 μg ml^−1); PE anti-TCR β (clone H57-597, 2 μg ml^−1); APC/Fire 750 anti-TCR γ/δ (clone GL3, 2 μg ml^−1); PE-Cyanine anti-CD11c (clone N418, 2 μg ml^−1); APC/Fire 750 anti-MHC Class II (clone M5/114.15.2, 2 μg ml^−1). Cells were washed once with a large volume of staining buffer before analysis with BD LSR Fortessa X-20 and FlowJo software (BD Biosciences).

[2] = test system: bone marrow-derived macrophages; assay: Macrophage transwell migration; assay type: cell-based, mouse; conditions: TSP-1 1, 10 or 100 nM
Method: Assays were conducted using 6.5-mm-diameter culture plate inserts (Corning) with 5-μm and 3-μm pore sizes for macrophages and neutrophils, respectively. Macrophages (1 × 10^5) or neutrophils (3 × 10^5) in migration media (DMEM/F12 with 0.25% BSA) were added to the inserts. The lower chambers contained migration buffer alone or chemoattractant (mouse CCL2 10 ng ml^−1 for macrophages or mouse CXCL1/KC 150 ng ml^−1 for neutrophils, PeproTech) with or without CGRP. Cells were allowed to migrate through the insert membrane for 3-4 h at 37 °C with 5% CO2. For macrophages, the inserts were then fixed with 4% paraformaldehyde, and cells on the upper side were removed. DAPI (1 μg ml^−1) was used to stain cells on the bottom side, and they were counted using a fluorescent microscope. […] The data are presented as the fold change, calculated by dividing the number of cells that migrated in response to treatments by the number of cells that migrated spontaneously (migration media only).
After 24 h, cells were collected for the migration assay.

[3] = test system: bone marrow-isolated neutrophils; assay: Neutrophil cell death; assay type: cell-based, mouse; conditions: TSP-1 1, 10 or 100 nM, in the presence of inflammatory cytokines; dose-dependent
[4] = test system: bone marrow-derived macrophages; assay: Macrophage efferocytosis of neutrophils; assay type: cell-based, mouse; conditions: macrophage treatment with TSP-1 1, 10 or 100 nM
Method: An efferocytosis assay kit (Cayman, 601770) was used following the manufacturer’s instructions. Neutrophils were labelled with CFSE and cultured in RPMI with 2% serum for 12 h to induce cell death. Bone marrow-derived macrophages cultured for 7 days were seeded at a density of 4 × 10^5 cells per well in a 6-well plate with DMEM/F12 containing 10% FBS and 100 units ml^−1 penicillin/streptomycin. Prior to the assay, macrophages were pre-treated with CGRP (1 or 20 nM) for 24 h. Macrophages were collected, labelled with CytoTell Blue, and then incubated with CFSE-labelled dead/dying neutrophils at different ratios (1:1, 1:2, and 1:4) at 37 °C for 15 min. The reaction was stopped by washing cells with ice-cold PBS containing 5% FBS and 1 mM EDTA. Cells were analysed with BD LSR Fortessa X-20 and FlowJo software (BD Biosciences). Macrophages were identified by CytoTell Blue-positive staining, and the efferocytosis index was calculated as the percentage of CFSE-positive cells in CytoTell Blue-labelled macrophages.
For the efferocytosis assay, cells were cultured with 1 nM CGRP immediately after transfection. After 24 h, cells were collected and co-cultured with dead or dying neutrophils.

[5] = test system: bone marrow-derived macrophages; assay: Macrophage cell death; assay type: cell-based, mouse; conditions: TSP-1 1, 10 or 100 nM, in the presence of inflammatory cytokines; dose-dependent
Method: Bone marrow cells from 8- to 12-week-old C57BL/6 J mice were flushed, filtered and cultured in conditioned medium (DMEM/F12 with 10% heat-inactivated FBS, 100 units ml^−1 penicillin/streptomycin, and 20% L929 fibroblasts-conditioned medium) at 37 °C with 5% CO2. After 7–9 days, differentiated macrophages were collected and seeded in 12-well or 6-well plates. The next day, cells were treated with CGRP (1 or 20 nM, Tocris Bioscience, 83651-90-5) for 20 min before exposure to mouse IL-1 (5 ng ml^−1) and TNF (50 ng ml^−1), IL-4 (2 ng ml^−1) and IL-13 (2 ng ml^−1), or IL-10 (2 ng ml^−1) (PeproTech Inc) for 24 or 72 h. Macrophages were detached with TrypLE (Gibco) containing 3 mM EDTA, stained with LIVE/DEAD Aqua dye for 20 min on ice, and incubated with blocking solution (10 μg ml^−1 TruStain FcX anti-CD16/32 (clone 93, BioLegend)) for 20 min before staining with antibodies for 30 min on ice. Antibodies from BioLegend included PE anti-CD11b (clone M1/70, 1 μg ml^−1), BV711 anti-F4/80 (clone BM8, 2 μg ml^−1), APC anti-CD80 (clone 16-10A1, 0.5 μg ml^−1) and PE-Cyanine7 anti-CD206 (clone C068C2, 1 μg ml^−1). […] After washing with Perm buffer and staining buffer, cells were analysed using BD LSR Fortessa X-20 and FlowJo software (BD Biosciences). […]

[6] = test system: bone marrow-derived neutrophils; assay: Neutrophil transwell migration; assay type: cell-based, mouse; conditions: TSP-1 1, 10 or 100 nM
Method: Bone marrow cells were flushed from femora and tibiae of C57BL/6 J mice (8- to 12-week-old) with HBSS without Ca^2+ and Mg^2+ containing 2% FBS and 1 mM EDTA. Cell suspension was passed through a 70-μm strainer. Next, EasySep Mouse Neutrophil Enrichment Kit or EasySep Mouse Monocyte Isolation Kit ([sequence] Technologies) was used to isolate neutrophils or monocytes according to the manufacturer’s instructions. Neutrophils were resuspended in RPMI containing 100 units ml^−1 penicillin/streptomycin and 10% FBS for cell migration assay and cell death assay or 2% FBS for efferocytosis.
Assays were conducted using 6.5-mm-diameter culture plate inserts (Corning) with 5-μm and 3-μm pore sizes for macrophages and neutrophils, respectively. Macrophages (1 × 10^5) or neutrophils (3 × 10^5) in migration media (DMEM/F12 with 0.25% BSA) were added to the inserts. The lower chambers contained migration buffer alone or chemoattractant (mouse CCL2 10 ng ml^−1 for macrophages or mouse CXCL1/KC 150 ng ml^−1 for neutrophils, PeproTech) with or without CGRP. […] For neutrophils, cells that migrated into the lower chamber were collected and counted using a haemocytometer. The data are presented as the fold change, calculated by dividing the number of cells that migrated in response to treatments by the number of cells that migrated spontaneously (migration media only).

[7] = skin wound borders D1 and D3 or muscle defect via fibrin hydrogel, day 3 post-injury

With thrombospondin-1 [TSP-1] the “CD206 expression in injured tissue” value ([1]; skin and muscle injuries, day 14 post-injury) was “increase”, the “number of inflammatory monocytes/macrophages (Ly6C^hi) in injured tissue” value [1, 7] was “reduced numbers” and the “number of monocytes/macrophages in injured tissue” value [1, 7] was “reduced numbers”. The “number of neutrophils in injured tissue” value [1, 7] was “reduced numbers”, the “macrophage migration towards CCL2” value [2] was “inhibition of migration” and the neutrophil death [3] was “accelerated death”. The “efferocytosis of neutrophils by macrophages” value [4] was “greatly enhanced”, the macrophage death [5] was “accelerated death” and the “neutrophil migration towards CXCL1” value [6] was “inhibition of migration”.
